system: hypoxia-inducible endogenous VEGF expression; experiment: Hypoxia-inducible endogenous VEGF expression ELISA in HeLa cells, dose-response EC50 (Table 3); format: cell-based, human; conditions: HeLa cells, hypoxic conditions (1% O2), 24-48 hours, VEGF in conditioned media; read-out: ELISA EC50
Method in brief: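 HeLa cells kept 24-48 h under hypoxia (1% O2, 5% CO2, nitrogen balance) with or without compound, e.g. seven concentrations; secreted VEGF in conditioned medium quantified by ELISA against a standard curve. Parallel Cell Titer Glo viability under identical conditions excludes cytotoxicity.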

Compound | EC50
O=C(Oc1ccc(F)cc1)N1CCc2c([nH]c3ccc(Cl)cc23)C1c1ccc(OCCCn2ccnc2)cc1 (stereo not shown) [Compound 994] | < 0.008 µM
O=C(Oc1ccc(F)cc1)N1CCc2c([nH]c3ccc(Br)cc23)C1c1ccc(C(F)(F)F)cc1 (stereo not shown) [Compound 426] | < 0.008 µM
O=C(Oc1ccc(Cl)cc1)N1CCc2c([nH]c3ccc(Br)cc23)C1c1ccc(C(F)(F)F)cc1 (stereo not shown) [Compound 570] | < 0.008 µM

same assay, conditions: Homo sapiens, HeLa, read-out: ELISA EC50 μM

Compound | EC50
CN1CCN(CCCCOc2ccc(C3c4[nH]c5ccc(Cl)cc5c4CCN3C(=O)Oc3ccc(Cl)cc3)cc2)CC1 (stereo not shown) [Compound 704] | 0.04 to 0.2 µM
COc1ccc(OC(=O)N2CCc3c([nH]c4ccc(Cl)cc34)C2c2ccc(OCCC3CCCN3C)cc2)cc1 (stereo not shown) [Compound 1005] | 0.2 to 1 µM
O=C(Oc1ccc(Cl)cc1)N1CCc2c([nH]c3ccc(Cl)cc23)C1c1ccc(OCC(O)CN2CCSCC2)cc1 (stereo not shown) [Compound 923] | < 0.008 µM
O=C1NC2CSC(CCCCC(=O)OCCOc3ccc(C4c5[nH]c6ccc(Cl)cc6c5CCN4C(=O)Oc4ccc(Cl)cc4)cc3)C2N1 (stereo not shown) [Compound 544] | < 0.008 µM
O=C(COc1ccc(C2c3[nH]c4ccc(Cl)cc4c3CCN2C(=O)Oc2ccc(F)cc2)cc1)N1CCN(CCO)CC1 (stereo not shown) [Compound 1064] | 0.008 to 0.04 µM
CC(C)NCCCCCCOc1ccc(C2c3[nH]c4ccc(Cl)cc4c3CCN2C(=O)Oc2ccc(F)cc2)cc1 (stereo not shown) [Compound 774] | 0.008 to 0.04 µM
O=C(Oc1ccc(Cl)cc1)N1CCc2c([nH]c3ccc(Cl)cc23)C1c1ccc(OCCCN2CCOCC2)cc1 (stereo not shown) [Compound 894] | < 0.008 µM
CC(C)NCCCCCCOc1ccc(C2c3[nH]c4ccc(Cl)cc4c3CCN2C(=O)Oc2ccc(Cl)cc2)cc1 (stereo not shown) [Compound 784] | < 0.008 µM
COc1cc(C2c3[nH]c4ccc(Cl)cc4c3CCN2C(=O)Oc2ccc(Cl)cc2)ccc1OCCCN1CCOCC1 (stereo not shown) [Compound 1093] | 0.008 to 0.04 µM
CN1CCCC1CCOc1ccc(C2c3[nH]c4ccc(Cl)cc4c3CCN2C(=O)Oc2ccc(F)cc2)cc1 (stereo not shown) [Compound 1008] | 0.04 to 0.2 µM
O=C(Oc1ccc(F)cc1)N1CCc2c([nH]c3ccc(Cl)cc23)C1c1ccc(OCCCCCCN2CCCCC2)cc1 (stereo not shown) [Compound 777] | < 0.008 µM
COCCN(CCOC)CC(O)COc1ccc(C2c3[nH]c4ccc(Cl)cc4c3CCN2C(=O)Oc2ccc(F)cc2)cc1 (stereo not shown) [Compound 913] | < 0.008 µM
O=C1CN(CCCOc2ccc(C3c4[nH]c5ccc(Cl)cc5c4CCN3C(=O)Oc3ccc(Cl)cc3)cc2)C(=O)N1 (stereo not shown) [Compound 1672] | < 0.008 µM
O=C(Oc1ccc(Cl)cc1)N1CCc2c([nH]c3ccc(Cl)cc23)[C@@H]1c1ccc(OC2CCN(CC[C@H](O)CO)CC2)cc1 [Compound 1703] | 0.2 to 1 µM
O=C(Oc1ccc(Cl)cc1)N1CCc2c([nH]c3ccc(Cl)cc23)C1c1ccc(OCCCN2CCC(CO)C2)cc1 (stereo not shown) [Compound 1098] | 0.008 to 0.04 µM

same assay, conditions: Homo sapiens; HeLa cells, hypoxic conditions (1% O2), 24-48 hours, VEGF in conditioned media; read-out: ELISA EC50

Compound | EC50
COCCOc1ccc(C2c3[nH]c4ccc(Cl)cc4c3CCN2C(=O)Oc2ccc(OC)cc2)cc1 (stereo not shown) [Compound 465] | 0.008 to 0.04 µM
COc1ccc(OC(=O)N2CCc3c([nH]c4ccc(Cl)cc34)C2c2ccc(OC)c(F)c2)cc1 (stereo not shown) [Compound 1197] | 0.008 to 0.04 µM
O=C(Oc1ccc(Cl)cc1)N1CCc2c([nH]c3ccc(Cl)cc23)C1c1ccc(OCCNc2nccs2)cc1 (stereo not shown) [#841] | < 0.008 µM
O=C(Oc1ccc(Cl)cc1)N1CCc2c([nH]c3ccc(Cl)cc23)C1c1ccc(OCCCn2nccn2)cc1 (stereo not shown) [Compound 1016] | > 1 µM
O=C(Oc1ccc(Cl)cc1)N1CCc2c([nH]c3ccc(Cl)cc23)C1c1ccc(OCCn2cncn2)cc1 (stereo not shown) [Compound 840] | 0.008 to 0.04 µM
COc1ccc(OC(=O)N2CCc3c([nH]c4ccc(Cl)cc34)C2c2ccc(OCCCn3cncn3)cc2)cc1 (stereo not shown) [Compound 888] | < 0.008 µM
O=C1OCC(COc2ccc(C3c4[nH]c5ccc(Cl)cc5c4CCN3C(=O)Oc3ccc(Cl)cc3)cc2)O1 (stereo not shown) [Compound 421] | < 0.008 µM
CC1(C)OC[C@H](CCOc2ccc(C3c4[nH]c5ccc(Cl)cc5c4CCN3C(=O)Oc3ccccc3)cc2)O1 (stereo partly shown) [Compound 1168] | < 0.008 µM
O=C(Oc1ccccc1Cl)N1CCc2c([nH]c3ccc(Cl)cc23)C1c1ccc(OCCCn2ccnc2)cc1 (stereo not shown) [Compound 934] | < 0.008 µM
COc1ccc(OC(=O)N2CCc3c([nH]c4ccc(Cl)cc34)C2c2ccc(OCCCn3ccnn3)cc2)cc1 (stereo not shown) [Compound 1031] | < 0.008 µM
COc1cc(C2c3[nH]c4ccc(Cl)cc4c3CCN2C(=O)Oc2ccc(Cl)cc2)ccc1OCCCCn1cncn1 (stereo not shown) [Compound 1088] | 0.008 to 0.04 µM
O=C(Oc1ccc(Cl)cc1)N1CCc2c([nH]c3ccc(Cl)cc23)C1c1ccc(OCCCn2cncn2)cc1 (stereo not shown) [Compound 391] | < 0.008 µM
Cc1ccc(OC(=O)N2CCc3c([nH]c4ccc(Cl)cc34)C2c2ccc(OCC[C@H](O)CO)cc2)cc1 (stereo partly shown) [Compound 1180] | < 0.008 µM
Cc1cnc(NCCOc2ccc(C3c4[nH]c5ccc(Cl)cc5c4CCN3C(=O)Oc3ccc(Cl)cc3)cc2)s1 (stereo not shown) [#842] | < 0.008 µM
O=C(Oc1ccc(F)cc1)N1CCc2c([nH]c3ccc(Cl)cc23)C1c1ccc(OCC2OCCO2)cc1 (stereo not shown) [Compound 1051] | < 0.008 µM
O=C(Oc1ccc(Cl)cc1)N1CCc2c([nH]c3ccc(Cl)cc23)[C@@H]1c1ccc(OCCC(O)Cn2cncn2)cc1 (stereo partly shown) [Compound 1282] | < 0.008 µM

Compound | EC50
Cc1ccc(OC(=O)N2CCc3c([nH]c4ccc(Cl)cc34)C2c2ccc(OCC[C@H]3COC(C)(C)O3)cc2)cc1 (stereo partly shown) [Compound 1170] | < 0.008 µM
O=C(Oc1ccc(F)cc1)N1CCc2c([nH]c3ccc(Cl)cc23)C1c1ccc(OCCCCCl)cc1 (stereo not shown) [Compound 719] | < 0.008 µM
O=C(Oc1ccc(F)cc1)N1CCc2c([nH]c3ccc(Cl)cc23)C1c1ccc(OCCCCl)cc1 (stereo not shown) [Compound 712] | < 0.008 µM
O=C(Oc1ccc(F)cc1)N1CCc2c([nH]c3ccc(Cl)cc23)C1c1ccc(OCCn2cccn2)cc1 (stereo not shown) [Compound 836] | 0.008 to 0.04 µM
O=C(Oc1ccc(Cl)cc1)N1CCc2c([nH]c3ccc(Cl)cc23)C1c1ccc(OCCCCn2cncn2)cc1 (stereo not shown) [Compound 706] | < 0.008 µM
COc1ccc(C2c3[nH]c4ccc(Cl)cc4c3CCN2C(=O)Oc2ccc(C)cc2)cc1F (stereo not shown) [Compound 1196] | 0.008 to 0.04 µM
O=C(Oc1ccccc1Cl)N1CCc2c([nH]c3ccc(Cl)cc23)C1c1ccc(F)cc1 (stereo not shown) [Compound 588] | 0.04 to 0.2 µM
COc1ccc(C2c3[nH]c4ccc(Br)cc4c3CCN2C(=O)Oc2ccc(Cl)cc2)cc1 (stereo not shown) [Compound 355] | < 0.008 µM
Cc1ccc(OC(=O)N2CCc3c([nH]c4ccc(Cl)cc34)C2c2ccc(OCCCn3cncn3)cc2)cc1 (stereo not shown) [Compound 882] | < 0.008 µM
Cc1ccc2[nH]c3c(c2c1)CCN(C(=O)Oc1ccc(Cl)cc1)C3c1ccc(C(C)C)cc1 (stereo not shown) [Compound 344] | 0.008 to 0.04 µM
O=C(Oc1ccc(Cl)cc1)N1CCc2c([nH]c3ccc(Cl)cc23)C1c1ccc(OCC(O)Cn2ccnn2)cc1 (stereo not shown) [Compound 973] | 0.008 to 0.04 µM
O=C(Oc1ccc(F)cc1)N1CCc2c([nH]c3ccc(Cl)cc23)C1c1cccc(OCCCn2ccnc2)c1 (stereo not shown) [Compound 1123] | 0.04 to 0.2 µM
COc1cc(C2c3[nH]c4ccc(Cl)cc4c3CCN2C(=O)Oc2ccc(C)cc2)ccc1OCCCn1cncn1 (stereo not shown) [Compound 1152] | 0.008 to 0.04 µM
O=C(Oc1ccc(F)cc1)N1CCc2c([nH]c3ccc(Cl)cc23)C1c1ccc(OCCCCCCn2cncn2)cc1 (stereo not shown) [Compound 781] | < 0.008 µM
O=C(Oc1ccc(Cl)cc1)N1CCc2c([nH]c3ccc(Cl)cc23)C1c1ccc(OCCCn2ccnc2)cc1 (stereo not shown) [Compound 917] | < 0.008 µM

same assay, conditions: Homo sapiens; HeLa cells, hypoxic conditions (1% O2), VEGF ELISA of conditioned media; read-out: ELISA EC50

Compound | EC50
O=C(Oc1ccc(Cl)cc1)N1CCc2c([nH]c3ccc(Cl)cc23)[C@@H]1c1ccc(OC2CCOCC2)cc1 [Compound 1605] | < 0.008 µM
C[Si](C)(C)CCS(=O)(=O)N1CCC(Oc2ccc([C@H]3c4[nH]c5ccc(Cl)cc5c4CCN3C(=O)Oc3ccc(Cl)cc3)cc2)CC1 [Compound 1652] | < 0.008 µM
CN1C(=O)CN(CCCOc2ccc(C3c4[nH]c5ccc(Cl)cc5c4CCN3C(=O)Oc3ccc(Cl)cc3)cc2)C1=O (stereo not shown) [Compound 1673] | < 0.008 µM
CCS(=O)(=O)NCC(O)CCOc1ccc([C@H]2c3[nH]c4ccc(Cl)cc4c3CCN2C(=O)Oc2ccc(C)cc2)cc1 (stereo partly shown) [Compound 1646] | < 0.008 µM
CCOC(=O)NC[C@@H](O)COc1ccc([C@H]2c3[nH]c4ccc(Cl)cc4c3CCN2C(=O)Oc2ccc(F)cc2)cc1 [Compound 1664] | < 0.008 µM
O=C(Oc1ccc(Cl)cc1)N1CCc2c([nH]c3ccc(Cl)cc23)[C@@H]1c1ccc(Oc2cnccn2)cc1 [Compound 1571] | < 0.008 µM
Cc1ccc(OC(=O)N2CCc3c([nH]c4ccc(Cl)cc34)[C@@H]2c2ccc(OCCC(O)CNS(C)(=O)=O)cc2)cc1 (stereo partly shown) [Compound 1668] | 0.008 to 0.04 µM
CC(CO)(CO)COc1ccc([C@H]2c3[nH]c4ccc(Cl)cc4c3CCN2C(=O)Oc2ccccc2)cc1 [Compound 1336] | 0.008 to 0.04 µM
CCCOC(=O)NCC(O)CCOc1ccc([C@H]2c3[nH]c4ccc(Cl)cc4c3CCN2C(=O)Oc2ccc(Cl)cc2)cc1 (stereo partly shown) [Compound 1666] | < 0.008 µM
O=C(Oc1ccc(Cl)cc1)N1CCc2c([nH]c3ccc(Cl)cc23)[C@@H]1c1ccc(OCCC(O)CNS(=O)(=O)C2CC2)cc1 (stereo partly shown) [Compound 1639] | < 0.008 µM
C[Si](C)(C)CCS(=O)(=O)N1CCC(Oc2ccc(C3c4[nH]c5ccc(Cl)cc5c4CCN3C(=O)Oc3ccc(Cl)cc3)cc2)CC1 (stereo not shown) [Compound 1581] | < 0.008 µM
Cc1ccc(OC(=O)N2CCc3c([nH]c4ccc(Cl)cc34)[C@@H]2c2ccc(OCCC(O)CNC(=O)c3ccccn3)cc2)cc1 (stereo partly shown) [Compound 1641] | < 0.008 µM
COCCOC(=O)NCC(O)CCOc1ccc([C@H]2c3[nH]c4ccc(Cl)cc4c3CCN2C(=O)Oc2ccc(C)cc2)cc1 (stereo partly shown) [Compound 1645] | < 0.008 µM
COCCOC(=O)NCC(O)COc1ccc(C2c3[nH]c4ccc(Cl)cc4c3CCN2C(=O)Oc2ccc(Cl)cc2)cc1 (stereo not shown) [Compound 1564] | < 0.008 µM
CCOC(=O)NCC(O)CCOc1ccc([C@H]2c3[nH]c4ccc(Cl)cc4c3CCN2C(=O)Oc2ccc(C)cc2)cc1 (stereo partly shown) [Compound 1643] | < 0.008 µM
